Data as given in patent US20250186437A1, “CARBOLINE COMPOUNDS AND USE THEREOF” (PTC Therapeutics, Inc., priority 2021, published 2025).
Counter-ions that a name gives are not always drawn.

Assays:
MOLM-13 cells [1] = experiment: MOLM-13 Cell Proliferation Assay (indicator of DHODH inhibition); format: cell-based; conditions: Homo sapiens, 72 Hours of culture, CellTiter-Glo, no uridine
In short: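 Low-passage MOLM-13 cells (10^4/well) in RPMI 1640 + 10% FBS exposed to compound (0.5% DMSO final) for 72 h at 37 °C, 5% CO2. Viability read by CellTiter-Glo luminescence; growth reflects de novo pyrimidine synthesis dependent on DHODH.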

MOLM-13 cells [2] = experiment: MOLM-13 Uridine Rescue Assay; format: cell-based; conditions: Homo sapiens; MOLM-13 cell proliferation with 100 μM Uridine added, 72 Hours of culture
Protocol: The following assay was conducted to measure proliferation of MOLM-13 cells in the presence of each compound studied. This assay was included as an indicator of DHODH inhibition, as growth of MOLM-13 cells is known to depend on synthesis of pyrimidines using the de novo pathway, which can be blocked by inhibition of DHODH. • 1. MOLM-13 cells were cultured in RPMI 1640 medium+10% Fetal Bovine Serum (FBS). Only low passage cells (<20) were used for the compound tests • 2. On day 1, Log-phase growing Molm-13 Cells were counted and diluted to 10^5 cells/mL in RPMI 1640 medium+10% FBS • 3. 100 μL of diluted MOLM-13 cells in 96 well white plates were seeded, for a final density of 10^4 cells/well. • 4. 0.5 μL of pre-diluted 200× compounds or DMSO control was added to each well. The final DMSO concentration was 0.5%. • 5. After 72 Hours of culture at 37° C., 5% CO2, the plates were taken out and cooled to RT, then 50 μL CellTiter-Glo® (Promega) was added, and the composition was mixed at RT for 10 minutes. • 6. The plates were then read by ViewLux (Speed-fast, Gain-High, Bining-1X, 5 seconds).
Several compounds were also tested in a Uridine rescue assay. In the Uridine rescue assay, using the procedure in Example 1 above, an additional plate of MOLM-13 cell cultures was prepared, to which 100 μM of Uridine was added in step 3 of the process.

SMILES: CN1CCN(c2ncc(C3c4[nH]c5ccc(Cl)cc5c4CCN3c3nccc(C(F)(F)F)n3)cn2)CC1 (stereo not shown) [Compound 369, 6-chloro-1-[2-(4-methylpiperazin-1-yl)pyrimidin-5-yl]-2-[4-(trifluoromethyl)pyrimidin-2-yl]-2,3,4,9-tetrahydro-1H-pyrido[3,4-b]indole]
- IC50 (MOLM-13 cells [1]): 0.0045 µM
- IC50 (MOLM-13 cells [2]): 5.02 µM

SMILES: Cc1ccc(C2c3[nH]c4ccc(Cl)cc4c3CCN2c2nccc(C(F)(F)F)n2)c(F)c1 (stereo not shown) [Compound 254, 6-chloro-1-(2-fluoro-4-methylphenyl)-2-[4-(trifluoromethyl)pyrimidin-2-yl]-2,3,4,9-tetrahydro-1H-pyrido[3,4-b]indole]
- IC50 (MOLM-13 cells [1]): 0.0022 µM
- IC50 (MOLM-13 cells [2]): 6.91 µM

SMILES: Cc1ccc(C2c3[nH]c4ccc(Br)cc4c3CCN2c2nccc(C(F)(F)F)n2)cc1 (stereo not shown) [Compound 264, 6-bromo-1-(4-methylphenyl)-2-[4-(trifluoromethyl)pyrimidin-2-yl]-2,3,4,9-tetrahydro-1H-pyrido[3,4-b]indole]
- IC50 (MOLM-13 cells [1]): 0.0009 µM
- IC50 (MOLM-13 cells [2]): 20.9 µM

SMILES: Cc1ccc([C@H]2c3[nH]c4ccc(Cl)cc4c3CCN2c2nc(C(F)(F)F)cc(C(F)(F)F)n2)c(F)c1F [Compound 407, (1S)-2-[4,6-bis(trifluoromethyl)pyrimidin-2-yl]-6-chloro-1-(2,3-difluoro-4-methylphenyl)-2,3,4,9-tetrahydro-1H-pyrido[3,4-b]indole]
- IC50 (MOLM-13 cells [1]): 0.0003 µM
- IC50 (MOLM-13 cells [2]): 14.7 µM

SMILES: Cc1ccc(C2c3[nH]c4ccc(Cl)cc4c3CCN2c2nc(C)nc(C)n2)cc1 (stereo not shown) [Compound 355, 6-chloro-2-(4,6-dimethyl-1,3,5-triazin-2-yl)-1-(4-methylphenyl)-2,3,4,9-tetrahydro-1H-pyrido[3,4-b]indole]
- IC50 (MOLM-13 cells [1]): 0.0117 µM
- IC50 (MOLM-13 cells [2]): 5.66 µM

SMILES: FC(F)(F)c1cc(C(F)(F)F)nc(N2CCc3c([nH]c4ccc(Cl)cc34)C2c2ccc(N3CCOCC3)nc2)n1 (stereo not shown) [Compound 357, 2-[4,6-bis(trifluoromethyl)pyrimidin-2-yl]-6-chloro-1-[6-(morpholin-4-yl)pyridin-3-yl]-2,3,4,9-tetrahydro-1H-pyrido[3,4-b]indole formate (1:1)]
- IC50 (MOLM-13 cells [1]): 0.0006 µM
- IC50 (MOLM-13 cells [2]): 9.3 µM

SMILES: Cc1nc(C)nc(N2CCc3c([nH]c4ccc(Cl)cc34)[C@@H]2c2ccc(C)c(F)c2F)n1 [Compound 347, (1S)-6-chloro-1-(2,3-difluoro-4-methylphenyl)-2-(4,6-dimethyl-1,3,5-triazin-2-yl)-2,3,4,9-tetrahydro-1H-pyrido[3,4-b]indole]
- IC50 (MOLM-13 cells [1]): 0.0011 µM
- IC50 (MOLM-13 cells [2]): 2.77 µM

SMILES: Cc1ccc2[nH]c3c(c2c1)CCN(c1nccc(C(F)(F)F)n1)C3c1ccc(C)c(F)c1F (stereo not shown) [Compound 271, 1-(2,3-difluoro-4-methylphenyl)-6-methyl-2-[4-(trifluoromethyl)pyrimidin-2-yl]-2,3,4,9-tetrahydro-1H-pyrido[3,4-b]indole]
- IC50 (MOLM-13 cells [1]): 0.0037 µM
- IC50 (MOLM-13 cells [2]): 22.7 µM

SMILES: Cc1ccc(C2c3[nH]c4ccc(N(C)C)cc4c3CCN2c2nccc(C(F)(F)F)n2)c(F)c1F (stereo not shown) [Compound 330, 1-(2,3-difluoro-4-methylphenyl)-N,N-dimethyl-2-[4-(trifluoromethyl)pyrimidin-2-yl]-2,3,4,9-tetrahydro-1H-pyrido[3,4-b]indol-6-amine]
- IC50 (MOLM-13 cells [1]): 0.0113 µM
- IC50 (MOLM-13 cells [2]): 11.5 µM

SMILES: Cc1ccc(C2c3[nH]c4ccc(Cl)cc4c3CCN2c2nc(C)cc(C(F)(F)F)n2)cc1 (stereo not shown) [Compound 361, 6-chloro-1-(4-methylphenyl)-2-[4-methyl-6-(trifluoromethyl)pyrimidin-2-yl]-2,3,4,9-tetrahydro-1H-pyrido[3,4-b]indole]
- IC50 (MOLM-13 cells [1]): 0.0018 µM
- IC50 (MOLM-13 cells [2]): 22.1 µM

SMILES: Cc1ccc(C2c3[nH]c4ccc(Cl)c(F)c4c3CCN2c2nccc(C(F)(F)F)n2)c(F)c1F (stereo not shown) [Compound 197, 6-chloro-1-(2,3-difluoro-4-methylphenyl)-5-fluoro-2-[4-(trifluoromethyl)pyrimidin-2-yl]-2,3,4,9-tetrahydro-1H-pyrido[3,4-b]indole]
- IC50 (MOLM-13 cells [1]): 0.0011 µM
- IC50 (MOLM-13 cells [2]): 17.5 µM

SMILES: FC(F)(F)c1cc(C(F)(F)F)nc(N2CCc3c([nH]c4ccc(Cl)cc34)C2c2cnc(N3CCOCC3)nc2)n1 (stereo not shown) [Compound 358, 2-[4,6-bis(trifluoromethyl)pyrimidin-2-yl]-6-chloro-1-[2-(morpholin-4-yl)pyrimidin-5-yl]-2,3,4,9-tetrahydro-1H-pyrido[3,4-b]indole formate (1:1)]
- IC50 (MOLM-13 cells [1]): 0.0008 µM
- IC50 (MOLM-13 cells [2]): 12.3 µM

SMILES: Cc1nc(C)nc(N2CCc3c([nH]c4ccc(Cl)cc34)C2c2ccc(N3CCOCC3)c(F)c2F)n1 (stereo not shown) [Compound 284, 6-chloro-1-[2,3-difluoro-4-(morpholin-4-yl)phenyl]-2-(4,6-dimethyl-1,3,5-triazin-2-yl)-2,3,4,9-tetrahydro-1H-pyrido[3,4-b]indole]
- IC50 (MOLM-13 cells [1]): 0.0129 µM
- IC50 (MOLM-13 cells [2]): 12.2 µM

SMILES: Cc1ccnc(N2CCc3c([nH]c4ccc(Cl)cc34)C2c2ccc(N3CCOCC3)nc2)n1 (stereo not shown) [Compound 352, 6-chloro-2-(4-methylpyrimidin-2-yl)-1-[6-(morpholin-4-yl)pyridin-3-yl]-2,3,4,9-tetrahydro-1H-pyrido[3,4-b]indole]
- IC50 (MOLM-13 cells [1]): 0.0089 µM
- IC50 (MOLM-13 cells [2]): 6.41 µM

SMILES: FC(F)(F)c1nc(N2CCc3c([nH]c4ccc(Cl)cc34)[C@@H]2c2ccc(N3CCOCC3)nc2)nc(C(F)(F)F)n1 [Compound 405, (1S)-2-[4,6-bis(trifluoromethyl)-1,3,5-triazin-2-yl]-6-chloro-1-[6-(morpholin-4-yl)pyridin-3-yl]-2,3,4,9-tetrahydro-1H-pyrido[3,4-b]indole]
- IC50 (MOLM-13 cells [1]): 0.0002 µM
- IC50 (MOLM-13 cells [2]): 5.88 µM

SMILES: Fc1cc2[nH]c3c(c2cc1Cl)CCN(c1nccc(C(F)(F)F)n1)C3c1cccc(F)c1F (stereo not shown) [Compound 108, 6-chloro-1-(2,3-difluorophenyl)-7-fluoro-2-[4-(trifluoromethyl)pyrimidin-2-yl]-2,3,4,9-tetrahydro-1H-pyrido[3,4-b]indole]
- IC50 (MOLM-13 cells [1]): 0.0019 µM
- IC50 (MOLM-13 cells [2]): 8.27 µM

SMILES: Cc1nc(C)nc(N2CCc3c([nH]c4ccc(Cl)cc34)C2c2cnc(N3CCOCC3)nc2)n1 (stereo not shown) [Compound 293, 6-chloro-2-(4,6-dimethyl-1,3,5-triazin-2-yl)-1-[2-(morpholin-4-yl)pyrimidin-5-yl]-2,3,4,9-tetrahydro-1H-pyrido[3,4-b]indole]
- IC50 (MOLM-13 cells [1]): 0.0128 µM
- IC50 (MOLM-13 cells [2]): 10.6 µM

SMILES: N#Cc1ccc(C2c3[nH]c4ccc(Cl)cc4c3CCN2c2nccc(C(F)(F)F)n2)c(F)c1F (stereo not shown) [Compound 278, 4-{6-chloro-2-[4-(trifluoromethyl)pyrimidin-2-yl]-2,3,4,9-tetrahydro-1H-pyrido[3,4-b]indol-1-yl}-2,3-difluorobenzonitrile]
- IC50 (MOLM-13 cells [1]): 0.0017 µM
- IC50 (MOLM-13 cells [2]): 4.81 µM

SMILES: Cc1ccc([C@H]2c3[nH]c4ccc(Cl)cc4c3CCN2c2nc(C(F)(F)F)nc(C(F)(F)F)n2)c(F)c1F [Compound 387, (1S)-2-[4,6-bis(trifluoromethyl)-1,3,5-triazin-2-yl]-6-chloro-1-(2,3-difluoro-4-methylphenyl)-2,3,4,9-tetrahydro-1H-pyrido[3,4-b]indole]
- IC50 (MOLM-13 cells [1]): 0.0002 µM
- IC50 (MOLM-13 cells [2]): 7.66 µM

SMILES: Cc1ccc(C2c3[nH]c4c(O)cc(Cl)cc4c3CCN2c2nccc(C(F)(F)F)n2)c(F)c1F (stereo not shown) [Compound 220, 6-chloro-1-(2,3-difluoro-4-methylphenyl)-2-[4-(trifluoromethyl)pyrimidin-2-yl]-2,3,4,9-tetrahydro-1H-pyrido[3,4-b]indol-8-ol]
- IC50 (MOLM-13 cells [1]): 0.0011 µM
- IC50 (MOLM-13 cells [2]): 6.7 µM

SMILES: Cc1ccc([C@H]2c3[nH]c4ccc(Cl)cc4c3CCN2c2ncnc(C(F)(F)F)n2)cc1 [Compound 418, (1S)-6-chloro-1-(4-methylphenyl)-2-[4-(trifluoromethyl)-1,3,5-triazin-2-yl]-2,3,4,9-tetrahydro-1H-pyrido[3,4-b]indole]
- IC50 (MOLM-13 cells [1]): 0.002 µM
- IC50 (MOLM-13 cells [2]): 14.9 µM

SMILES: Cc1cc(C(F)(F)F)nc(N2CCc3c([nH]c4ccc(Cl)cc34)C2c2cnc(N3CCOCC3)nc2)n1 (stereo not shown) [Compound 374, 6-chloro-2-[4-methyl-6-(trifluoromethyl)pyrimidin-2-yl]-1-[2-(morpholin-4-yl)pyrimidin-5-yl]-2,3,4,9-tetrahydro-1H-pyrido[3,4-b]indole]
- IC50 (MOLM-13 cells [1]): 0.0016 µM
- IC50 (MOLM-13 cells [2]): 8.84 µM

SMILES: Cc1ccc(C2c3[nH]c4ccc([N+](=O)[O-])cc4c3CCN2c2nccc(C(F)(F)F)n2)c(F)c1F (stereo not shown) [Compound 305, 1-(2,3-difluoro-4-methylphenyl)-6-nitro-2-[4-(trifluoromethyl)pyrimidin-2-yl]-2,3,4,9-tetrahydro-1H-pyrido[3,4-b]indole]
- IC50 (MOLM-13 cells [1]): 0.001 µM
- IC50 (MOLM-13 cells [2]): 11.6 µM

SMILES: FC(F)(F)c1cc(C(F)(F)F)nc(N2CCc3c([nH]c4ccc(Cl)cc34)[C@@H]2c2cnc(N3CCOCC3)nc2)n1 [Compound 410, (1S)-2-[4,6-bis(trifluoromethyl)pyrimidin-2-yl]-6-chloro-1-[2-(morpholin-4-yl)pyrimidin-5-yl]-2,3,4,9-tetrahydro-1H-pyrido[3,4-b]indole]
- IC50 (MOLM-13 cells [1]): 0.0003 µM
- IC50 (MOLM-13 cells [2]): 14.2 µM

SMILES: Cc1ccc(C2c3[nH]c4ccc(Cl)cc4c3CCN2c2nccc(C(F)(F)F)n2)cc1F (stereo not shown) [Compound 354, 6-chloro-1-(3-fluoro-4-methylphenyl)-2-[4-(trifluoromethyl)pyrimidin-2-yl]-2,3,4,9-tetrahydro-1H-pyrido[3,4-b]indole]
- IC50 (MOLM-13 cells [1]): 0.0022 µM
